The target in one assay is T1, Adenosine receptor A1 (Rattus norvegicus, UniProt P25099).
T1 sequence (P25099 whole entry): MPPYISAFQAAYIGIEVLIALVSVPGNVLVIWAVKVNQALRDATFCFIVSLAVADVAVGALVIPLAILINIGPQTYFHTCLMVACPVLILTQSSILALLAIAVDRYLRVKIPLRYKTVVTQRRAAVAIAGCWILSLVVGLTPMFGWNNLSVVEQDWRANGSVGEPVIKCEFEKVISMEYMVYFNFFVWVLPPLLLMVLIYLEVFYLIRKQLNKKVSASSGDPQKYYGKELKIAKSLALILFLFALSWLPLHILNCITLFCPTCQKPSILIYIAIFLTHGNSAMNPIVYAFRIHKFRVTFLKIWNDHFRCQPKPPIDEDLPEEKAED
Put plainly: Tested for the displacement [3H]PIA from Adenosine A1 receptor in rat brain membrane. It is filed as cell membranes.

Assay [1] addresses T2, Adenosine receptor A2a (Rattus norvegicus, UniProt P30543).
Description: (§1) Displacement [3H]-CGS-21,680 from Adenosine A2A receptor in rat striatal membrane.
The target of assay [2] is Adenosine receptor A2a (Rattus norvegicus) (UniProt P30543). As to the kind of experiment: Displacement [3H]CGS-21680 from Adenosine A2A receptor in rat striatal membrane. Format: cell membranes. To be noted: Striatum, concentration not given here. The arrangement: concentration or dose not given beside the values.
Assay [3] addresses Adenosine receptors; A1 & A2a (Rattus norvegicus) (UniProt P25099+P30543). Put plainly: Selectivity for adenosine A2a and A1 receptors. It is filed as protein assay.
Assay [4] has as its target T3, Adenosine receptor A3 (Rattus norvegicus, UniProt P28647).
T3 sequence (P28647 whole entry): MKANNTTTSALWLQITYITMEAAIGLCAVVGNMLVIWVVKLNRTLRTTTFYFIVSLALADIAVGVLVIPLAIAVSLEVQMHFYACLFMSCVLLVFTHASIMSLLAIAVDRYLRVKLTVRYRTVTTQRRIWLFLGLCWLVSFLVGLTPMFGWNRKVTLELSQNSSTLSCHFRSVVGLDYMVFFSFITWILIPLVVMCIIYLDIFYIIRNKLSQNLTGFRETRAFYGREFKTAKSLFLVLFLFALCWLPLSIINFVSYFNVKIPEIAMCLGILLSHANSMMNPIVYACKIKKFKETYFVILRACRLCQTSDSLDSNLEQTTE
As to the kind of experiment: Displacement of [125I]AB-MECA from rat Adenosine A3 receptor expressed in CHO cell membrane. Format: cell membranes. For orientation: Displacement assays read how much labelled ligand stays bound in the presence of the test substance.

Assay [5] addresses Adenosine A1 receptor (Rattus norvegicus) (UniProt P25099). Put plainly: Selectivity for rat adenosine A3 and rat adenosine A1 receptors.
In assay [6] the target is T4, Adenosine receptor A3 (Homo sapiens, UniProt P0DMS8).
T4 sequence (P0DMS8 whole entry): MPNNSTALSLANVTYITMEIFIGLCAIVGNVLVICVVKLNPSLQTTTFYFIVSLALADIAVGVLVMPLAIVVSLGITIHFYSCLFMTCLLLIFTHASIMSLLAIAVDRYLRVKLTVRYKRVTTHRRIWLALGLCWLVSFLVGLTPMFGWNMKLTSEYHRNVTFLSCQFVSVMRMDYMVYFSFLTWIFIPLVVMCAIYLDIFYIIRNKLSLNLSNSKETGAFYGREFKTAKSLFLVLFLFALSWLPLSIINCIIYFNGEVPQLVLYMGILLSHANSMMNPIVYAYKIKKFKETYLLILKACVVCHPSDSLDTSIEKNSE
As to the kind of experiment: Displacement of [125I]AB-MECA from human Adenosine A3 receptor expressed in HEK293 cell membrane. Format: cell membranes.

Assay [7] has as its target T5, Adenosine receptor A1 (Rattus norvegicus) (UniProt P25099).
T5 sequence (whole entry): T1 sequence (P25099 whole entry)
As to the kind of experiment: Displacement of [3H]PIA from Adenosine A1 receptor of rat brain membrane at 10e-4 M.

The target of assay [8] is T6, Adenosine receptor A3 (Homo sapiens) (UniProt P0DMS8).
T6 sequence (whole entry): T4 sequence (P0DMS8 whole entry)
Put plainly: Displacement of [125I]AB-MECA from human Adenosine A3 receptor expressed in HEK293 cell membrane at 10e-4 M. It is filed as cell membranes.

The target in assay [9] is T2, Adenosine receptor A2a. The source holds these as a separate data set.
Description: as §1

pKi: −log10 of the molar value. Where “and” joins values, the source holds several entries; their conditions need not be identical. Equal values may be shown once.

Sequence of Adenosine receptor A2a (Rattus norvegicus) (P30543 whole entry): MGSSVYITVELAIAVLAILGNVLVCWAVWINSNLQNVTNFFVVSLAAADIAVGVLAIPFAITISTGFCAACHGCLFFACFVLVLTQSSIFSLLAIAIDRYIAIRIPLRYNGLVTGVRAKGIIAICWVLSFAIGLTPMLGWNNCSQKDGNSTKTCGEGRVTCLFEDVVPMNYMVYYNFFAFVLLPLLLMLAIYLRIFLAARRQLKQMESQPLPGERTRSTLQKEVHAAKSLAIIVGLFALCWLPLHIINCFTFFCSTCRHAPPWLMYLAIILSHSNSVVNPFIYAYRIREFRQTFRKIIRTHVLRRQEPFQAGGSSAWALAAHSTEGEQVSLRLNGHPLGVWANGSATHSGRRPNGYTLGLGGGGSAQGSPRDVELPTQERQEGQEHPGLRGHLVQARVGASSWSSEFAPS
T2 sequence (P30543 whole entry): as above
Sequence of Adenosine receptors; A1 & A2a (Rattus norvegicus) (P30543 whole entry, looked up, one chain of several): as the sequence (P30543 whole entry) above

The pKi is the negative decadic logarithm of the Ki, by convention in mol/L. As to `Nc1nc2ccccc2n2cc(-c3ccccc3)nc12`, the figures for the pKi on Adenosine receptor A1 and on Adenosine receptor A2a [1] were 7.47 and 6.54, respectively.
A word on the inhibition: it is the percentage by which the read-out fell short of the control. As for `CCOC(=O)c1sc(SCc2ccccc2)c2c1CC(C)(C)CC2=O`, on Adenosine receptor A1, the pKi is 6.25. Further, the inhibition in [2] turned out to be 34%. Besides, the Selectivity in assay [3] was more than 17.6.
On to `CCOC(=O)c1sc(NN)c2c1CCCC2=O`, for which the pKi at Adenosine receptor A1 was 4.76; at Adenosine receptor A2a [1], 4.44. The Selectivity in assay [3] amounted to 2.1.
The molecule `CSc1sc(C(=O)NN)c2c1C(O)CCC2` (stereo not drawn) had a pKi on Adenosine receptor A1 of 4.15. In addition, in [2], the inhibition was found to be 28.9%. The same molecule came in with a Selectivity in assay [3] of more than 1.4.
`CSc1sc(C(=O)NN)c2c1C=CCC2`: the values for the pKi at Adenosine receptor A1 and on Adenosine receptor A3 [4] were 4.29 and 4.88, respectively. The inhibition in [2] is less than 10%. In addition, the Selectivity was more than 1.9 in [3] and 0.25 in assay [5].
With `C=CCSc1sc(C(=O)OCC)c2c1C(=O)CCC2`, the pKi was 5.97 on Adenosine receptor A1 and 5.22 on Adenosine receptor A2a [1]. Also, the Selectivity in assay [3] worked out at 5.7.
In the case of `CCOC(=O)c1sc(SC)c2c1CCCC2=O`, the pKi on Adenosine receptor A1 is 5.71; on Adenosine receptor A3 [4], 4.82; on Adenosine receptor A2a [1], 5.44. Further, the values for the Selectivity in assay [3] and in [5] were 1.9 and 7.88, respectively.
In turn, `CCOC(=O)c1sc(SCC)c2c1CC(C)(C)CC2=O` gave a pKi on Adenosine receptor A2a [1] of 4.62.
With `CCOC(=O)c1sc(SC)c2c1CCCC2O` (stereo not drawn), the pKi was 4.74 on Adenosine receptor A1, 4.81 on Adenosine receptor A3 [4], 4.45 on Adenosine receptor A3 [6] and 4.47 on Adenosine receptor A2a [1]. Besides, the Selectivity worked out at 1.8 in assay [3] and 0.84 in [5].
For `CCOC(=O)c1sc(SC(C)C)c2c1CCCC2=O`, the pKi on Adenosine receptor A1 is 5.75; on Adenosine receptor A2a [1], 5.33. The molecule further returned a Selectivity in assay [3] of 2.6.
Take `CSc1scc2c1C(=O)CCC2`: the values for the inhibition in [7] and in assay [2] were 28% and less than 10%, respectively. Also, the Selectivity in [3] was more than 1.
With `CCCSc1sc(C(=O)OCC)c2c1C(=O)CCC2`, the pKi at Adenosine receptor A1 is 5.90; at Adenosine receptor A2a [1], 5.33. The molecule also registered a Selectivity in [3] of 3.7.
Take `CCOC(=O)c1sc(SC)c2c1CCC/C2=N/OC`: the pKi on Adenosine receptor A1 was 4.16. The molecule also had an inhibition in assay [2] of 22%. Moreover, in assay [3], the Selectivity is more than 1.4.
With `CCOC(=O)c1sc(SC(C)CC)c2c1CC(C)(C)CC2=O` (stereo not drawn), the pKi on Adenosine receptor A1 was 5.44; on Adenosine receptor A2a [1], 3.97. Moreover, the Selectivity in assay [3] is 29.1.
On to `Nc1nc2ccc(Cl)cc2c2nc(-c3ccco3)nn12` [CGS-15943], for which the pKi at Adenosine receptor A2a [1] was 5.48.
With `CCOC(=O)c1sc(S(C)(=O)=O)c2c1CC(C)(C)CC2=O`, the results for the pKi on Adenosine receptor A1 and on Adenosine receptor A3 [4] were 4.49 and 4.29, respectively. Moreover, the inhibition in [2] turned out to be 13%. Further, the Selectivity in assay [3] is more than 3.1; in [5], 1.58.
Take `CCCCSc1sc(C(=O)OCC)c2c1C(=O)CCC2`: the pKi on Adenosine receptor A1 is 5.85; at Adenosine receptor A2a [1], 4.81. The Selectivity in assay [3] was found to be 11.
On Adenosine receptor A2a [1], `O=c1c(-c2ccc(O)cc2)coc2cc(O)cc(O)c12` [GENISTEIN] gave a pKi of 4.44.
As for `CCOC(=O)c1sc(SCc2ccccc2)c2c1CCCC2=O`, the pKi is 6.14 and 6.15 at Adenosine receptor A1; 5.87 at Adenosine receptor A2a [1]; 5.87 at Adenosine receptor A2a [9]. Also, the inhibition in [8] stood at 24%. This molecule also registered a Selectivity in assay [3] of 1.9.
Regarding `O=C(O)c1sc(SCc2ccccc2)c2c1CCCC2=O`, the pKi was 4.30 at Adenosine receptor A1, 4.38 at Adenosine receptor A3 [4], 3.93 on Adenosine receptor A3 [6] and 4.82 on Adenosine receptor A2a [1]. Further, the Selectivity in [3] turned out to be 0.3.
With `Nc1nc2ccc(Cl)cc2n2c(-c3ccccc3)nnc12`, the pKi at Adenosine receptor A2a [1] was 7.68.
With `CCOC(=O)CSc1sc(C(=O)OCC)c2c1C(=O)CCC2`, the results for the pKi at Adenosine receptor A1, at Adenosine receptor A3 [4] and on Adenosine receptor A2a [1] were 5.65, 4.99 and 4.59, respectively. In addition, the Selectivity turned out to be 11.5 in assay [3] and 4.59 in assay [5].
In turn, `COc1cc(-c2oc3c(OC)cc(CCCO)cc3c2C=O)ccc1O` had a pKi on Adenosine receptor A1 of 7.77.

Source of the values: ChEMBL document CHEMBL1129657, “Tetrahydrobenzothiophenone derivatives as a novel class of adenosine receptor antagonists” (J Med Chem, 1996).
